Here are results for four molecules from article PMC10795196, “Self-Assembled Materials Based on Fully Aromatic Peptides: The Impact of Tryptophan, Tyrosine, and Dopa Residues” (Langmuir, 2024).

Values after ≈ are worked out from the molar mass of the structure shown. Non-standard residues stand in square brackets, D forms with d. Residues, ends and D or L forms follow the SMILES beside them. No end group written: not given here. Dopa = N[C@@H](Cc1ccc(O)c(O)c1)C(=O)O; AEEA = NCCOCCOCC(=O)O

The data set can be described thus: Water solubility determined spectroscopically (absorbance at 280 nm). The data set is classed as physicochemical. The settings on record: direct dissolution of powder in bidistilled water, centrifuged solutions, UV absorbance at 280 nm with calculated ε. The protocol: Peptide solutions were prepared by direct dissolution of pure powders in bidistilled water. The analytical concentration of solutions was spectroscopically determined by absorbance on a UV–vis Thermo Fisher Scientific Inc. (Wilmington, Delaware, USA) Nanodrop 2000c spectrophotometer equipped with a 1.0 cm quartz cuvette (Hellma) using the molar absorptivity (ε) at 280 nm reported in Table 1. For each peptide, the ε was calculated using the formula ε(280)= [x·5500 + y·1215 + k·2630] [L·cm^–1·mol^–1], where x, y, and k were the numbers of W, Y, and Dopa residues, respectively. […] Hydrogel formation was triggered using the “solvent switch” method, which consists of the addition of water to a peptide stock solution (100 mg/mL in DMSO). The peptide concentration after water addition was 1.0 wt % (10.0 mg/mL).
To deeply investigate the molecular determinant that can positively or negatively affect the aggregation process, herein, we evaluated the impact generated by replacement of the Phe residue with the Trp (W) one. Trp was selected to assess the effect of a more sterically hindered residue containing the heteroaromatic indole group. On the other side, Tyr residues were replaced by Dopa, characterized by the catechol group in place of the phenol one. Using this design, two novel peptides [(WY)3 and (W-Dopa)3] and their N-PEGylated analogues [PEG8-(WY)3 and PEG8-(W-Dopa)3] were designed (Figure 1). The novel sequences were synthesized using a solid-phase approach, according to the Fmoc/tBu protocols on Rink amide MBHA resin. This support allows for obtaining amidation of the C-terminus. Due to the major steric hindrance of the Trp residue, the synthesis of these primary sequences was more difficult than the previously reported ones and required the employment of a DMF/NMP mixture as solvent. After purification, peptides were lyophilized and their identity was assessed by LC-MS (Figures S1–S4 and Table 1). The estimation of the peptide solubility was spectroscopically determined by recording the absorbance spectra (Figure S5) on the centrifuged peptide solutions. […] As expected, peptides derivatized with the PEG moiety are more soluble than their corresponding unPEGylated versions, thus confirming PEGylation as a helpful strategy to improve intrinsic water solubility of all-aromatic sequences.
By thermodynamic solubility is commonly meant solubility found after equilibrating the solid with the medium. Turning to `NC(=O)[C@H](Cc1ccc(O)c(O)c1)NC(=O)[C@H](Cc1c[nH]c2ccccc12)NC(=O)[C@H](Cc1ccc(O)c(O)c1)NC(=O)[C@H](Cc1c[nH]c2ccccc12)NC(=O)[C@H](Cc1ccc(O)c(O)c1)NC(=O)[C@@H](N)Cc1c[nH]c2ccccc12` [(W-Dopa)3] (H-W[Dopa]W[Dopa]W[Dopa]-NH2), the solubility (thermodynamic) was 7610 µg/mL (≈ 6.84 mM).

Consider `NCCOCCOCC(=O)NCCOCCOCC(=O)NCCOCCOCC(=O)NCCOCCOCC(=O)N[C@@H](Cc1c[nH]c2ccccc12)C(=O)N[C@@H](Cc1ccc(O)c(O)c1)C(=O)N[C@@H](Cc1c[nH]c2ccccc12)C(=O)N[C@@H](Cc1ccc(O)c(O)c1)C(=O)N[C@@H](Cc1c[nH]c2ccccc12)C(=O)N[C@@H](Cc1ccc(O)c(O)c1)C(N)=O` [PEG8-(W-Dopa)3] (H-[AEEA][AEEA][AEEA][AEEA]W[Dopa]W[Dopa]W[Dopa]-NH2), for which the solubility (thermodynamic) was 15000 µg/mL (≈ 8.86 mM).

`NCCOCCOCC(=O)NCCOCCOCC(=O)NCCOCCOCC(=O)NCCOCCOCC(=O)N[C@@H](Cc1c[nH]c2ccccc12)C(=O)N[C@@H](Cc1ccc(O)cc1)C(=O)N[C@@H](Cc1c[nH]c2ccccc12)C(=O)N[C@@H](Cc1ccc(O)cc1)C(=O)N[C@@H](Cc1c[nH]c2ccccc12)C(=O)N[C@@H](Cc1ccc(O)cc1)C(N)=O` [PEG8-(WY)3] (H-[AEEA][AEEA][AEEA][AEEA]WYWYWY-NH2): the thermodynamic solubility was 3770 µg/mL (≈ 2.29 mM).

As for WYWYWY-NH2 [(WY)3], the solubility (thermodynamic) was 1150 µg/mL.
